Measured values published in PubChem BioAssay (NCI).
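GI50 is the concentration that inhibits growth by half. TGI is the concentration that stops growth completely.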

How the values were obtained:
Experiment in all cases: NCI-60 cell line screen, 384-well format
CAKI-1 renal = test system: CAKI-1 renal
SK-MEL-5 melanoma = test system: SK-MEL-5 melanoma
SF-295 CNS = test system: SF-295 CNS
MDA-MB-231 breast = test system: MDA-MB-231 breast
OVCAR-8 ovarian = test system: OVCAR-8 ovarian
SNB-75 CNS = test system: SNB-75 CNS
MDA-MB-435 melanoma = test system: MDA-MB-435 melanoma
NCI-H23 lung = test system: NCI-H23 lung
SF-268 CNS = test system: SF-268 CNS
COLO 205 colon = test system: COLO 205 colon
TK-10 renal = test system: TK-10 renal
MCF7 breast = test system: MCF7 breast
CCRF-CEM leukemia = test system: CCRF-CEM leukemia
MDA-MB-468 breast = test system: MDA-MB-468 breast
NCI-H322M lung = test system: NCI-H322M lung
SR leukemia = test system: SR leukemia
U251 glioblastoma = test system: U251 glioblastoma
HT29 colon = test system: HT29 colon
SN12C renal = test system: SN12C renal
NCI-H226 lung = test system: NCI-H226 lung
SK-OV-3 ovarian = test system: SK-OV-3 ovarian
UO-31 renal = test system: UO-31 renal
NCI-H460 NSCLC = test system: NCI-H460 NSCLC
HOP-92 NSCLC = test system: HOP-92 NSCLC
EKVX NSCLC = test system: EKVX NSCLC
RXF 393 renal = test system: RXF 393 renal
ACHN renal = test system: ACHN renal
PC-3 prostate = test system: PC-3 prostate
SK-MEL-28 melanoma = test system: SK-MEL-28 melanoma
T-47D breast = test system: T-47D breast
HS 578T breast = test system: HS 578T breast
UACC-257 melanoma = test system: UACC-257 melanoma
SF-539 CNS = test system: SF-539 CNS
RPMI-8226 leukemia = test system: RPMI-8226 leukemia
OVCAR-4 ovarian = test system: OVCAR-4 ovarian
HCT-15 colon = test system: HCT-15 colon
HL-60(TB) leukemia = test system: HL-60(TB) leukemia
MALME-3M melanoma = test system: MALME-3M melanoma
BT-549 breast = test system: BT-549 breast
A498 renal = test system: A498 renal
LOX IMVI melanoma = test system: LOX IMVI melanoma
K-562 leukemia = test system: K-562 leukemia
HCC-2998 colon = test system: HCC-2998 colon
KM12 colon = test system: KM12 colon
DU-145 prostate = test system: DU-145 prostate
IGROV1 ovarian = test system: IGROV1 ovarian
SW-620 colon = test system: SW-620 colon
MOLT-4 leukemia = test system: MOLT-4 leukemia
SNB-19 CNS = test system: SNB-19 CNS
NCI/ADR-RES ovarian = test system: NCI/ADR-RES ovarian
M14 melanoma = test system: M14 melanoma
UACC-62 melanoma = test system: UACC-62 melanoma
NCI-H522 lung = test system: NCI-H522 lung
OVCAR-5 ovarian = test system: OVCAR-5 ovarian
786-0 renal = test system: 786-0 renal
HOP-62 NSCLC = test system: HOP-62 NSCLC
OVCAR-3 ovarian = test system: OVCAR-3 ovarian
A549 NSCLC = test system: A549 NSCLC

## CCN1CCN(Cc2ccc(-c3cc4c(N[C@H](C)c5ccccc5)ncnc4[nH]3)cc2)CC1
CAKI-1 renal
  GI50: 299 nM
  TGI: 1880 nM
SK-MEL-5 melanoma
  GI50: 1530 nM
  TGI: 2870 nM
SF-295 CNS
  GI50: 1710 nM
  TGI: 3230 nM
MDA-MB-231 breast
  GI50: 1560 nM
  TGI: 3640 nM
OVCAR-8 ovarian
  GI50: 1570 nM
  TGI: 3740 nM
SNB-75 CNS
  GI50: 2040 nM
  TGI: 5980 nM
MDA-MB-435 melanoma
  GI50: 1620 nM
  TGI: 3040 nM
NCI-H23 lung
  GI50: 1520 nM
  TGI: 3940 nM
SF-268 CNS
  GI50: 1490 nM
  TGI: 3350 nM
COLO 205 colon
  GI50: 1780 nM
  TGI: 3290 nM
TK-10 renal
  GI50: 389 nM
  TGI: 2040 nM
MCF7 breast
  GI50: 1490 nM
  TGI: 2970 nM
CCRF-CEM leukemia
  GI50: 1830 nM
  TGI: 3230 nM
MDA-MB-468 breast
  GI50: 22.7 nM
  TGI: 60 nM
NCI-H322M lung
  GI50: 51.7 nM
  TGI: 1130 nM
SR leukemia
  GI50: 1760 nM
  TGI: 3150 nM
U251 glioblastoma
  GI50: 1800 nM
  TGI: 3620 nM
HT29 colon
  GI50: 1450 nM
  TGI: 2930 nM
SN12C renal
  GI50: 203 nM
  TGI: 2070 nM
NCI-H226 lung
  GI50: 1100 nM
  TGI: 4440 nM
SK-OV-3 ovarian
  GI50: 349 nM
  TGI: 1710 nM
UO-31 renal
  GI50: 1330 nM
  TGI: 11900 nM
NCI-H460 NSCLC
  GI50: 1750 nM
  TGI: 3570 nM
HOP-92 NSCLC
  GI50: 1260 nM
  TGI: 2640 nM
EKVX NSCLC
  GI50: 91.2 nM
  TGI: 2340 nM
RXF 393 renal
  GI50: 1420 nM
  TGI: 2810 nM
ACHN renal
  GI50: 89 nM
  TGI: 1520 nM
PC-3 prostate
  GI50: 1850 nM
  TGI: 8640 nM
SK-MEL-28 melanoma
  GI50: 1590 nM
  TGI: 2940 nM
T-47D breast
  GI50: 439 nM
  TGI: 2590 nM
HS 578T breast
  GI50: 1480 nM
  TGI: 2830 nM
UACC-257 melanoma
  GI50: 1360 nM
  TGI: 2640 nM
SF-539 CNS
  GI50: 1560 nM
  TGI: 2910 nM
RPMI-8226 leukemia
  GI50: 1280 nM
  TGI: 2550 nM
OVCAR-4 ovarian
  GI50: 1560 nM
  TGI: 5250 nM
HCT-15 colon
  GI50: 1360 nM
  TGI: 2750 nM
HL-60(TB) leukemia
  GI50: 1660 nM
  TGI: 3020 nM
MALME-3M melanoma
  GI50: 1380 nM
  TGI: 2680 nM
BT-549 breast
  GI50: 1590 nM
  TGI: 3140 nM
A498 renal
  GI50: 1220 nM
  TGI: 2610 nM
LOX IMVI melanoma
  GI50: 1570 nM
  TGI: 2910 nM
K-562 leukemia
  GI50: 217 nM
  TGI: 550 nM
HCC-2998 colon
  GI50: 1560 nM
  TGI: 3040 nM
KM12 colon
  GI50: 1920 nM
  TGI: 4070 nM
DU-145 prostate
  GI50: 1540 nM
  TGI: 10800 nM
IGROV1 ovarian
  GI50: 120 nM
  TGI: 695 nM
SW-620 colon
  GI50: 1770 nM
  TGI: 3510 nM
MOLT-4 leukemia
  GI50: 1340 nM
  TGI: 2620 nM
SNB-19 CNS
  GI50: 2460 nM
  TGI: 11600 nM
NCI/ADR-RES ovarian
  GI50: 2020 nM
  TGI: 6110 nM
M14 melanoma
  GI50: 1590 nM
  TGI: 2950 nM
UACC-62 melanoma
  GI50: 1620 nM
  TGI: 3000 nM
NCI-H522 lung
  GI50: 111 nM
  TGI: 1320 nM
OVCAR-5 ovarian
  GI50: 440 nM
  TGI: 2790 nM
786-0 renal
  GI50: 1070 nM
  TGI: 2280 nM
HOP-62 NSCLC
  GI50: 1660 nM
  TGI: 3310 nM
OVCAR-3 ovarian
  GI50: 1320 nM
  TGI: 5360 nM
A549 NSCLC
  GI50: 1060 nM
  TGI: 3520 nM

## CC[C@]1(O)C[C@H]2CN(CCc3c([nH]c4ccccc34)[C@@](C(=O)OC)(c3cc4c(cc3OC)N(C=O)[C@H]3[C@@](O)(C(=O)OC)[C@H](OC(C)=O)[C@]5(CC)C=CCN6CC[C@]43[C@@H]65)C2)C1
CAKI-1 renal
  GI50: 30.4 nM
  TGI: 18100 nM
SF-295 CNS
  GI50: < 14.2 nM
  TGI: < 23.1 nM
MDA-MB-231 breast
  TGI: > 93800 nM
OVCAR-8 ovarian
  GI50: < 12.1 nM
  TGI: 47 nM
NCI-H23 lung
  TGI: 49.9 nM
SF-268 CNS
  TGI: 20300 nM
TK-10 renal
  GI50: 54.5 nM
MCF7 breast
  TGI: 4320 nM
NCI-H322M lung
  GI50: 34 nM
HT29 colon
  TGI: 36200 nM
NCI-H226 lung
  GI50: 39.9 nM
  TGI: > 84900 nM
UO-31 renal
  GI50: 446 nM
  TGI: > 84800 nM
NCI-H460 NSCLC
  TGI: 13.1 nM
HOP-92 NSCLC
  GI50: < 23.2 nM
  TGI: 41100 nM
EKVX NSCLC
  GI50: 34.2 nM
  TGI: > 91800 nM
RXF 393 renal
  TGI: 78100 nM
ACHN renal
  GI50: 262 nM
  TGI: > 95900 nM
PC-3 prostate
  GI50: < 10.5 nM
  TGI: > 61200 nM
SK-MEL-28 melanoma
  TGI: 56200 nM
UACC-257 melanoma
  TGI: 20200 nM
SF-539 CNS
  TGI: < 12.2 nM
OVCAR-4 ovarian
  GI50: 1400 nM
HCT-15 colon
  GI50: 72 nM
  TGI: 1310 nM
MALME-3M melanoma
  TGI: 29300 nM
BT-549 breast
  TGI: 32.9 nM
A498 renal
  GI50: < 16.3 nM
  TGI: 844 nM
K-562 leukemia
  TGI: < 10.8 nM
IGROV1 ovarian
  GI50: < 27.3 nM
  TGI: > 35600 nM
NCI/ADR-RES ovarian
  GI50: 1870 nM
  TGI: 4570 nM
M14 melanoma
  TGI: 17800 nM
UACC-62 melanoma
  TGI: 26000 nM
OVCAR-5 ovarian
  GI50: 44.2 nM
786-0 renal
  GI50: 14.3 nM
  TGI: 48100 nM
HOP-62 NSCLC
  TGI: 2330 nM
OVCAR-3 ovarian
  TGI: < 11 nM
A549 NSCLC
  GI50: 34.6 nM
